Calls of active or inactive are those of the source. The rule behind the calls is not given here.
Tests used:
[1] = Solubility of the compound in water; format: physicochemical
HCT-116 [2] = experiment: Induction of apoptosis in Bax-deficient human HCT116 cells assessed as necrotic cells at 5 uM after 24 hrs by Annexin V-FITC/propidium iodide staining based flow cytometry (reference value: 6.74%); format: functional
HCT-116 [3] = experiment: Induction of morphological changes in human HCT116 cells assessed as cell shrinkage at 5 to 10 uM after 24 hrs by phase contrast microscopic analysis; format: functional, cell-based
HCT-116 [4] = experiment: Induction of apoptosis in P53-deficient human HCT116 cells assessed as increase in Bax expression at 2.5 to 20 uM after 24 hrs by immunoblot analysis; format: functional, cell-based
FHC = experiment: Cytotoxicity against human FHC cells assessed as reduction in cell viability at 5 uM incubated for 24 hrs by CCK8 assay; format: cell-based
HCT-116 [5] = experiment: Cytotoxicity against Bax-deficient human HCT116 cells assessed as reduction in cell viability measured after 24 hrs by CCK8 assay; format: functional, cell-based; details: HCT-116, 24 h
HCT-116 [6] = experiment: Induction of apoptosis in human HCT116 cells assessed as decrease in pro-caspase9 level at 2.5 to 10 uM after 24 hrs by immunoblot analysis; format: functional, cell-based
HCT-116 [7] = experiment: Inhibition of colony formation in Bax-deficient human HCT116 cells after 24 hrs by crystal violet staining based assay; format: functional, cell-based
HCT-116 [8] = experiment: Induction of apoptosis in Bax-deficient human HCT116 cells assessed as late apoptotic cells at 5 uM after 24 hrs by Annexin V-FITC/propidium iodide staining based flow cytometry (reference value: 14.67%); format: functional
[9] = target: Cellular tumor antigen p53 (Homo sapiens) (UniProt P04637); experiment: Induction of P53 phosphorylation at Ser392 residue in human HCT116 cells after 15 to 90 mins by immunoblot analysis; format: cell-based
HCT-116 [10] = experiment: Induction of apoptosis in human HCT116 cells assessed as necrotic cells at 2.5 uM after 24 hrs by Annexin V-FITC/propidium iodide staining based flow cytometry (reference value: 3.46%); format: functional
HCT-116 [11] = experiment: Induction of apoptosis in P53-deficient human HCT116 cells assessed as increase in p21 expression at 2.5 to 20 uM after 24 hrs by immunoblot analysis; format: functional, cell-based
RKO [12] = experiment: Cytotoxicity against human RKO cells after 48 hrs by MTT assay; format: functional, cell-based
HepG2 = experiment: Cytotoxicity against human HepG2 cells after 48 hrs by MTT assay; format: functional, cell-based; details: HepG2, 48 h
DLD-1 [13] = experiment: Induction of morphological changes in human DLD1 cells assessed as reduction in cell number at 5 to 10 uM after 24 hrs by phase contrast microscopic analysis; format: functional, cell-based
HCT-116 [14] = experiment: Cytotoxicity against human HCT116 cells after 48 hrs by MTT assay; format: functional, cell-based; details: HCT-116, 48 h
HCT-116 [15] = experiment: Induction of intracellular reactive oxygen species generation in human HCT116 cells at 5 to 10 uM after 24 hrs by DCFH-DA staining based flow cytometry; format: functional, cell-based
HCT-116 [16] = experiment: Induction of apoptosis in human HCT116 cells assessed as necrotic cells at 5 uM after 24 hrs by Annexin V-FITC/propidium iodide staining based flow cytometry (reference value: 3.46 to 9.31%); format: functional
HCT-116 [17] = experiment: Induction of apoptosis in P53-deficient human HCT116 cells assessed as viable cells at 5 uM after 24 hrs by Annexin V-FITC/propidium iodide staining based flow cytometry (reference value: 75.5%); format: functional; details: HCT-116, 24 h, read-out: Activity
DLD-1 [18] = experiment: Inhibition of colony formation in human DLD1 cells after 24 hrs by crystal violet staining based assay; format: functional, cell-based
DLD-1 [19] = experiment: Cytotoxicity against human DLD1 cells assessed as reduction in cell viability at 5 uM incubated for 24 hrs followed by compound washout by CCK8 assay; format: functional, cell-based; details: TDE = time-dependent effect
HCT-116 [20] = experiment: Inhibition of colony formation in P53-deficient human HCT116 cells after 24 hrs by crystal violet staining based assay; format: functional, cell-based
SK-OV-3 = experiment: Cytotoxicity against human SKOV3 cells after 48 hrs by MTT assay; format: functional, cell-based; details: SK-OV-3, 48 h
HCT-116 [21] = experiment: Induction of apoptosis in human HCT116 cells assessed as increase in cleaved PARP level at 2.5 to 10 uM after 24 hrs by immunoblot analysis; format: functional, cell-based
HCT-116 [22] = experiment: Induction of apoptosis in P53-deficient human HCT116 cells assessed as necrotic cells at 5 uM after 24 hrs by Annexin V-FITC/propidium iodide staining based flow cytometry (reference value: 4.45%); format: functional
[23] = target: Cellular tumor antigen p53 (Homo sapiens) (UniProt P04637); experiment: Induction of P53 translocation to nucleus in human HCT116 cells measured after 15 to 90 mins by immunoblot analysis; format: cell-based
HCT-116 [24] = experiment: Induction of apoptosis in human HCT116 cells assessed as viable cells at 2.5 to 5 uM after 24 hrs in presence of pan-caspase inhibitor z-VAD-FMK by Annexin V-FITC/propidium iodide staining based flow cytometry (reference value: 88.08%); format: functional
RKO [25] = experiment: Inhibition of colony formation in human RKO cells after 24 hrs by crystal violet staining based assay; format: functional, cell-based
HCT-116 [26] = experiment: Induction of apoptosis in Bax-deficient human HCT116 cells assessed as early apoptotic cells at 5 uM after 24 hrs by Annexin V-FITC/propidium iodide staining based flow cytometry (reference value: 8.01%); format: functional
RKO [27] = experiment: Induction of morphological changes in human RKO cells assessed as reduction in cell number at 5 to 10 uM after 24 hrs by phase contrast microscopic analysis; format: functional, cell-based
HCT-116 [28] = experiment: Induction of apoptosis in P53-deficient human HCT116 cells assessed as decrease in PARP expression at 2.5 to 20 uM after 24 hrs by immunoblot analysis; format: functional, cell-based
HCT-116 [29] = experiment: Induction of apoptosis in human HCT116 cells assessed as viable cells at 2.5 uM after 24 hrs by Annexin V-FITC/propidium iodide staining based flow cytometry (reference value: 87.19%); format: functional; details: HCT-116, 24 h, read-out: Activity
HCT-116 [30] = experiment: Induction of apoptosis in human HCT116 cells assessed as early apoptotic cells at 2.5 to 5 uM after 24 hrs in presence of pan-caspase inhibitor z-VAD-FMK by Annexin V-FITC/propidium iodide staining based flow cytometry (reference value: 2.5%); format: functional
HCT-116 [31] = experiment: Cell cycle arrest in human HCT116 cells assessed as accumulation at G0/G1 phase at 5 uM after 48 hrs by propidium iodide staining based flow cytometry (reference value: 82.16%); format: functional
HCT-116 [32] = experiment: Inhibition of colony formation in human HCT116 cells after 24 hrs by crystal violet staining based assay; format: functional, cell-based
HCT-116 [33] = experiment: Anticancer activity against human HCT116 cells xenografted in […] mouse assessed as reduction in tumor weight at 80 mg/kg administered once every 3 days for 21 days; format: functional, organism-based
HCT-116 [34] = experiment: Induction of apoptosis in human HCT116 cells assessed as early apoptotic cells at 5 uM after 24 hrs by Annexin V-FITC/propidium iodide staining based flow cytometry (reference value: 3.32 to 5.5%); format: functional
NCI-H1650 = experiment: Cytotoxicity against human NCI-H1650 cells after 48 hrs by MTT assay; format: functional, cell-based; details: NCI-H1650, 48 h
HCT-116 [35] = experiment: Induction of apoptosis in human HCT116 cells assessed as change in P53 expression at 2.5 to 20 uM after 24 hrs by immunoblot analysis; format: functional, cell-based

Sequence of Cellular tumor antigen p53 (Homo sapiens) (P04637 whole entry, looked up): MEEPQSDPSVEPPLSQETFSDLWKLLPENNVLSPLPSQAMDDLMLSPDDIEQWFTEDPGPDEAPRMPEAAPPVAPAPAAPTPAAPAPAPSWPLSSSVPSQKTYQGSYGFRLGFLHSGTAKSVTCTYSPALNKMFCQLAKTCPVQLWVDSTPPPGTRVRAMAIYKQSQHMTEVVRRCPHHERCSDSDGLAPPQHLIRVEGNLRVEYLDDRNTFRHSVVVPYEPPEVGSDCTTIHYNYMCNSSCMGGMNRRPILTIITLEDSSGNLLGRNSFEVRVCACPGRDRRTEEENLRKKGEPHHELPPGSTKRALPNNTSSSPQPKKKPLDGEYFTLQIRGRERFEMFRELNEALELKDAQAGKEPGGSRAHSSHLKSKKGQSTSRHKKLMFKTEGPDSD

With CN(C)CCNc1ccnc2cc(OCc3ccc(F)cc3)ccc12 as the molecule, how does the solubility [1] read?
The solubility was > 10000 µg/mL.

And the Activity (HCT-116 [2])?
Its Activity is 1.24%.

And the Activity (HCT-116 [3])?
The Activity was “Active”.

And the Activity (HCT-116 [4])?
Its Activity is “inactive”.

What about the Activity (FHC) of the same molecule?
The Activity was “Non-Toxic”.

What about the IC50 (HCT-116 [5]) of the same molecule?
The IC50 was 31100 nM.

What about the Activity (HCT-116 [6]) of the same molecule?
Its Activity is “Active”.

What about the inhibition (HCT-116 [7]) of the same molecule?
The inhibition was “inactive”.

What about the Activity (HCT-116 [8]) of the same molecule?
The Activity was 7.29%.

What about the Activity [9] of the same molecule?
Its Activity is “Active”.

And the Activity (HCT-116 [10])?
Its Activity is 6.64%.

And the Activity (HCT-116 [11])?
The Activity was “inactive”.

And the IC50 (RKO [12])?
The IC50 was 580 nM.

And the IC50 (HepG2)?
The IC50 was 790 nM.

What about the Activity (DLD-1 [13]) of the same molecule?
Its Activity is “Active”.

What about the IC50 (HCT-116 [14]) of the same molecule?
Its IC50 is 370 nM.

And the Activity (HCT-116 [15])?
The Activity was “inactive”.

What about the Activity (HCT-116 [16]) of the same molecule?
The Activity was 9.3 - 10.45%.

What about the viability at 5 µM (HCT-116 [17]) of the same molecule?
Its viability at 5 µM is 76.3%.

What about the inhibition (DLD-1 [18]) of the same molecule?
The inhibition was “Dose-dependent effect”.

And the Activity (DLD-1 [19])?
The Activity was “Tde”.

What about the inhibition (HCT-116 [20]) of the same molecule?
The inhibition was “inactive”.

What about the IC50 (SK-OV-3) of the same molecule?
The IC50 was 890 nM.

What about the Activity (HCT-116 [21]) of the same molecule?
Its Activity is “Active”.

What about the Activity (HCT-116 [22]) of the same molecule?
The Activity was 4.45%.

What about the Activity [23] of the same molecule?
The Activity was “Active”.

And the Activity (HCT-116 [24])?
Its Activity is 84.15%.

What about the inhibition (RKO [25]) of the same molecule?
The inhibition was “Dose-dependent effect”.

What about the Activity (HCT-116 [26]) of the same molecule?
The Activity was 24.16%.

And the Activity (RKO [27])?
Its Activity is “Active”.

And the Activity (HCT-116 [28])?
The Activity was “inactive”.

And the viability at 2.5 µM (HCT-116 [29])?
The viability at 2.5 µM was 78.1%.

What about the Activity (HCT-116 [30]) of the same molecule?
The Activity was 3.15%.

And the Activity (HCT-116 [31])?
The Activity was 83.72%.

And the inhibition (HCT-116 [32])?
The inhibition was “Dose-dependent effect”.

What about the Activity (HCT-116 [33]) of the same molecule?
The Activity was “Active”.

And the Activity (HCT-116 [34])?
Its Activity is 6.13 - 19.42%.

What about the IC50 (NCI-H1650) of the same molecule?
Its IC50 is 780 nM.

And the Activity (HCT-116 [35])?
Its Activity is “inactive”.
